From US9012446B2, “Amino-oxazines and amino-dihydrothiazine compounds as beta-secretase modulators and methods of use” (Amgen Inc., priority 2010, dated 2015) come the findings set out here.

One assay relates to Aβ40. Put plainly: In vitro BACE cell-based assay (Aβ40 sandwich ELISA, cells stably expressing APP). The procedure: In Vitro BACE Cell-Based Assay […] Cells stably expressing Amyloid Precursor Protein (APP) were plated at a density of 40K cells/well in 96 well plates (Costar). The cells were cultivated for 24 hours at 37° C. and 5% CO2 in DMEM supplemented with 10% FBS. The test compounds were then added to cells in 10-point dose response concentrations with the starting concentration being either 100 μM or 10 μM. The compounds were diluted from stock solutions in DMSO and the final DMSO concentration of the test compounds on cells was 0.1%. […] The IC50 of the compound was calculated from the percent of control or percent inhibition of Aβ40 as a function of the concentration of the test compound. The sandwich ELISA to detect Aβ40 was performed in 96 well microtiter plates, which were pre-treated with goat anti-rabbit IgG (Pierce). […] The optimal concentration for the pAb40 antibody was 3 μg/ml in Superblock/TBS (Pierce) that was supplemented with 0.05% Tween 20 (Sigma). […] Cellular supernatants were incubated with the capture antibody for 3 h at 4° C., followed by 3 wash steps in TBS-tween (0.05%). The detecting antibody incubation was for 2 h at 4° C., again followed by the wash steps as described previously. The final readout of the ELISA is Time-Resolved Fluorescence (counts per minute) using Delfia reagents Streptavidin-Europium and Enhancement solutions (Perkin Elmer) and the Victor 2 multilabel counter (Perkin Elmer).
(In general: In an ELISA, binding on a coated surface is turned into a signal by an enzyme label.)

For another assay, the target named is BACE (Homo sapiens, UniProt P56817). Put plainly: In vitro enzymatic BACE FRET assay. Type of assay: biochemical. Conditions: average IC50, enzyme assay; read-out: BACE 1 FRET assay. The procedure:
In Vitro Enzymatic BACE FRET (Fluorescence Resonance Energy Transfer) Assay (Enzyme Assay Data in the Example Table I) The assay buffer used in this screen is 0.05 M acetate, pH 4.2, 10% DMSO final, 100 uM genapol (which is a nonionic detergent, below its Critical Micelle Concentration). The beta secretase enzyme (0.2 nM) is pre-incubated for one hour with inhibitors, typically in about 1 uL of DMSO according to a serial dilution, are added thereto. This assay is effectively started by the addition of FRET substrate (50 nM) and the combination is incubated for one hour. The FRET assay is terminated with by addition of Tris buffer, which raises the pH to neutrality, and the fluorescence is determined. The FRET substrate is a peptide with commercially available fluorophore and quencher, on opposite sides of the BACE cleavage site. Proteolytic cleavage of the FRET substrate releases quenching of fluorescence (excitation 488 nm and emission […]).

The mark [1] stands for this setting: Homo sapiens, HEK293, average IC50, cell assay, HEK cells.
The mark [2] stands for this setting: Homo sapiens, HEK293, average IC50, read-out: HEK cell assay.

SMILES strings stand for the structures. pIC50: −log10 of the molar value. Where “and” joins values, the source holds several entries; their conditions need not be identical. Equal values may be shown once. Read-outs that look alike come from different tables or passages of the source.

BACE, sequence (P56817 46-501, species assumed): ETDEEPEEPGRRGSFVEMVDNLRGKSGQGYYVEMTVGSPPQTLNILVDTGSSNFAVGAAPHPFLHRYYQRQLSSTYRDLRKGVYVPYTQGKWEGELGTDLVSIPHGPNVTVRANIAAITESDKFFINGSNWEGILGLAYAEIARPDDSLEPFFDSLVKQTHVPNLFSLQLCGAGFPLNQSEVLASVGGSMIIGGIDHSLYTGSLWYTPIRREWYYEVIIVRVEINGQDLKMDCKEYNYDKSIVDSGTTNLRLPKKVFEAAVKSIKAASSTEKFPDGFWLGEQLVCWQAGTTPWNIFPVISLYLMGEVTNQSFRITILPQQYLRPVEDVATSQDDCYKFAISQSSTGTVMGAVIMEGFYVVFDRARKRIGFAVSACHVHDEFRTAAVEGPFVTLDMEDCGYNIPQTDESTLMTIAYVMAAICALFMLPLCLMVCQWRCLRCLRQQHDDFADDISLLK

As to `NC1=N[C@]2(CO[C@@H]1C1CCOCC1)c1cc(-c3cccnc3F)ccc1Oc1cnc(Cl)cc12` (racemic) [compound 207], the pIC50 in the assay with Aβ40 (average IC50, read-out: HEK cell assay) was 7.67; at BACE it was 7.94.
As to `NC1=N[C@]2(COC1)c1cc(-c3cccnc3F)ccc1Oc1c(F)cc(N3CCOCC3)cc12` [35B], the pIC50 in the assay on Aβ40 (setting [1]) was 7.06; at BACE, 6.68.
The like results for `NC1=N[C@]2(COC1)c1cc(-c3cccnc3F)ccc1Oc1c(F)cc(-c3ccnc(F)c3)cc12` [36B] were, in that order, 6.20 and 6.85.
On to `CC(C)(F)COc1cc(F)c2c(c1)[C@@]1(COCC(N)=N1)c1cc(-c3cccnc3F)ccc1O2` [37B], for which the pIC50 is 7.19 in the assay on Aβ40 (setting [1]) and 6.96 on BACE.
On the same counts, the results for `NC1=N[C@@]2(COC1)c1cc(-c3cccnc3F)ccc1Oc1cnc(C3CCOCC3)cc12` [Example 34, (S)-7-(2-fluoropyridin-3-yl)-3-(tetrahydro-2H-pyran-4-yl)-2′,6′-dihydrospiro[chromeno[2,3-c]pyridine-5,3′-[1,4]oxazin]-5′-amine] are 9.05 and 9.15.
`NC1=N[C@@]2(COC1)c1cc(-c3cccnc3F)ccc1Oc1c(F)cc(N3CCOCC3)cc12` [Example 35A, (S)-4′-fluoro-7′-(2-fluoropyridin-3-yl)-2′-morpholino-2,6-dihydrospiro[[1,4]oxazine-3,9′-xanthen]-5-amine]: the pIC50 in the assay with Aβ40 (setting [1]) was 8.72; on BACE it was 9.30.
On the same counts, the results for `NC1=N[C@@]2(COC1)c1cc(O)ccc1Oc1c(F)cc(-c3ccnc(F)c3)cc12` [Example 39, (S)-5-amino-4′-fluoro-2′-(2-fluoropyridin-4-yl)-2,6-dihydrospiro[[1,4]oxazine-3,9′-xanthen]-7′-ol] are 5.59 and 6.43.
On to `NC1=N[C@@]2(COC1)c1cc(-c3cccnc3F)ccc1Oc1c(F)cc(C3CCOCC3)cc12` [Example 42, (S)-4′-fluoro-7′-(2-fluoropyridin-3-yl)-2′-(tetrahydro-2H-pyran-4-yl)-2,6-dihydrospiro[[1,4]oxazine-3,9′-xanthen]-5-amine], for which the pIC50 was 8.62 in the assay with Aβ40 (setting [1]) and 9.40 on BACE.
For `CC(C)(C)COc1cc2c(cn1)Oc1ccc(-c3cccnc3F)cc1[C@@]21COCC(NC=O)=N1` [Example 43, (S)—N-(7-(2-fluoropyridin-3-yl)-3-(neopentyloxy)-2′,6′-dihydrospiro[chromeno[2,3-c]pyridine-5,3′-[1,4]oxazine]-5′-yl)formamide], the pIC50 in the assay with Aβ40 (setting [1]) is 8.92; on BACE, 7.76.
The like results for `CC(C)(C)COc1cc2c(cn1)Oc1ccc(N3CCC(F)(F)CC3)cc1[C@@]21COCC(N)=N1` [Example 44, (S)-7-(4,4-difluoropiperidin-1-yl)-3-(neopentyloxy)-2′,6′-dihydrospiro[chromeno[2,3-c]pyridine-5,3′-[1,4]oxazin]-5′-amine] were, in that order, 7.71 and 7.98.
In the case of `COc1cc(F)c2c(c1)[C@]1(COCC(N)=N1)c1cc(N3CCC(F)(F)CC3)ccc1O2` [Example 45, (S)-7′-(4,4-difluoropiperidin-1-yl)-4′-fluoro-2′-methoxy-2,6-dihydrospiro[[1,4]oxazine-3,9′-xanthen]-5-amine], the pIC50 in the assay on Aβ40 (setting [1]) is 6.38; at BACE, 6.80.
With `CC1(COc2cc(F)c3c(c2)[C@]2(COCC(N)=N2)c2cc(N4CCC(F)(F)CC4)ccc2O3)COC1` [Example 46, (S)-7′-(4,4-difluoropiperidin-1-yl)-4′-fluoro-2′-((3-methyloxetan-3-yl)methoxy)-2,6-dihydrospiro[[1,4]oxazine-3,9′-xanthen]-5-amine], the pIC50 is 7.49 in the assay with Aβ40 (setting [2]) and 8.03 at BACE.
For `COc1cc(F)c2c(c1)[C@]1(COCC(N)=N1)c1cc(-c3cccnc3F)ccc1O2` [Example 48, (S)-4′-fluoro-7′-(2-fluoropyridin-3-yl)-2′-methoxy-2,6-dihydrospiro[[1,4]oxazine-3,9′-xanthen]-5-amine], the pIC50 is 7.81 in the assay with Aβ40 (setting [1]) and 8.82 on BACE.
Take `NC1=N[C@@]2(COC1)c1cc(-c3cccnc3F)ccc1Oc1cnc(OC(F)F)cc12` [Example 49, (S)-3-(difluoromethoxy)-7-(2-fluoropyridin-3-yl)-2′,6′-dihydrospiro[chromeno[2,3-c]pyridine-5,3′-[1,4]oxazin]-5′-amine]: the pIC50 in the assay on Aβ40 (setting [2]) is 7.94; on BACE, 8.17.
Consider `COc1cc2c(cn1)Oc1ccc(-c3ccc(F)c(F)c3)cc1[C@@]21COCC(N)=N1` [Example 50, (S)-7-(3,4-difluorophenyl)-3-methoxy-2′,6′-dihydrospiro[chromeno[2,3-c]pyridine-5,3′-[1,4]oxazin]-5′-amine], for which the pIC50 was 6.97 in the assay with Aβ40 (setting [2]) and 7.51 on BACE.
Regarding `CC(C)(C)C#Cc1cnc2c(c1)[C@]1(COCC(N)=N1)c1cc(-c3cccnc3)ccc1O2` [Example 52, (S)-3-(3,3-dimethylbut-1-ynyl)-7-(pyridin-3-yl)-2′,6′-dihydrospiro[chromeno[2,3-b]pyridine-5,3′-[1,4]oxazin]-5′-amine], the pIC50 in the assay on Aβ40 (setting [2]) was 9.52; on BACE it was 9.40.
As for `CC(C)(C)C#Cc1ccc2c(c1)[C@@]1(COCC(N)=N1)c1cc(C#CC(C)(C)C)cnc1O2` [Example 53, (S)-3,7-bis(3,3-dimethylbut-1-ynyl)-2′,6′-dihydrospiro[chromeno[2,3-b]pyridine-5,3′-[1,4]oxazin]-5′-amine], the pIC50 in the assay with Aβ40 (setting [2]) was 7.60; on BACE, 8.27.
With `NC1=N[C@@]2(COC1)c1cc(-c3cccnc3F)ccc1Oc1c2cc(N2CCOCC2)nc1F` [Example 58, (S)-1-fluoro-7-(2-fluoropyridin-3-yl)-3-morpholino-2′,6′-dihydrospiro[chromeno[2,3-c]pyridine-5,3′-[1,4]oxazin]-5′-amine 2,2,2-trifluoroacetate], the results for the pIC50 with Aβ40 (setting [2]) and at BACE were 9.15 and 9.30, respectively.
Take `CC(C)(C)COc1cc2c(c(F)n1)Oc1ccc(-c3cccnc3F)cc1[C@]21COCC(N)=N1` [Example 59B, (R)-1-fluoro-7-(2-fluoropyridin-3-yl)-3-(neopentyloxy)-2′,6′-dihydrospiro[chromeno[2,3-c]pyridine-5,3′-[1,4]oxazin]-5′-amine]: the results for the pIC50 in the assay on Aβ40 (setting [2]) and at BACE were 6.43 and 7.07, respectively.
As to `CC(C)(C)COc1cnc2c(c1)[C@]1(CCOC(N)=N1)c1cc(-c3cccnc3F)ccc1O2` [Example 62, (S)-7-(2-fluoropyridin-3-yl)-3-(neopentyloxy)-5′,6′-dihydrospiro[chromeno[2,3-b]pyridine-5,4′-[1,3]oxazin]-2′-amine], the pIC50 was 8.32 in the assay on Aβ40 (setting [2]) and 8.60 at BACE.
On to `CC#Cc1cncc(-c2ccc3c(c2)[C@@]2(COCC(N)=N2)c2cc(C4=CCCOC4)cc(F)c2O3)c1` [Example 66, (S)-2′-(5,6-dihydro-2H-pyran-3-yl)-4′-fluoro-7′-(5-(prop-1-ynyl)pyridin-3-yl)-2,6-dihydrospiro[[1,4]oxazine-3,9′-xanthen]-5-amine], for which the figures for the pIC50 in the assay on Aβ40 (setting [1]) and at BACE were 8.82 and 9.30, respectively.
`CC(C)(C)COc1ccc2c(c1)[C@]1(COCC(N)=N1)c1cc(-c3cccnc3F)ccc1O2` [Example 67, (3S)-2′-(2,2-dimethylpropoxy)-7′-(2-fluoro-3-pyridinyl)-6H-spiro[1,4-oxazine-3,9′-xanthen]-5-amine]: the pIC50 with Aβ40 (setting [1]) is 7.81; with Aβ40 (setting [2]), 7.88; on BACE, 8.70 and 9.15.
Regarding `NC1=N[C@@]2(COC1)c1cc(-c3cccnc3F)ccc1Oc1ncc(N3CC[C@@H](F)C3)cc12` [Example 68, (S)-7-(2-fluoropyridin-3-yl)-3-((R)-3-fluoropyrrolidin-1-yl)-2′,6′-dihydrospiro[chromeno[2,3-b]pyridine-5,3′-[1,4]oxazin]-5′-amine], the results for the pIC50 with Aβ40 (setting [1]) and on BACE were 8.92 and 8.85, respectively.
In the case of `CC(C)(F)COc1cc(F)c2c(c1)[C@]1(CCSC(N)=N1)c1cc(-c3cccnc3F)ccc1O2` [Example 204, (S)-4′-fluoro-2′-(2-fluoro-2-methylpropoxy)-7′-(2-fluoropyridin-3-yl)-5,6-dihydrospiro[[1,3]thiazine-4,9′-xanthen]-2-amine], the pIC50 with Aβ40 (setting [2]) was 7.95; at BACE, 8.55.
On the same counts, the results for `NC1=N[C@@]2(CCO1)c1cc(-c3cccnc3F)ccc1Oc1c2cc(-c2cccnc2)nc1F` [Example 241, (S)-1-fluoro-7-(2-fluoropyridin-3-yl)-3-(pyridin-3-yl)-5′,6′-dihydrospiro[chromeno[2,3-c]pyridine-5,4′-[1,3]oxazin]-2′-amine] are 9.05 and 9.22.
